EP4702986A1, “POLYPEPTIDE AND USE THEREOF” (Biocells (Beijing) Biotech Co., Ltd., priority 2023, dated 2024)
Entries after “also recorded” stand apart in the source; their conditions may differ. Read-outs that look alike come from different tables or passages of the source. Numbered stars: 1 amine (or outer) side, 2 acyl side, 3 side chain; on linkers, the order of the positions; unused ones are H or OH. Side chains are listed from the residue outwards. Peptide text beside a SMILES is read from it. * marks the point of attachment. γGlu = O=C(O)[C@H](CCC(=O)[*:2])N[*:1]; Fumaroyl = O=C(O)/C=C/C(=O)*; Lauroyl = CCCCCCCCCCCC(=O)*; AEEA = NCCOCCOCC(=O)O

System: male SD rats
Settings: one animal per row, observed 48 hours
Experimental: In an experiment about acute toxicity of subcutaneous administration, male SD rats weighing 200-230 g were dosed in a range between 60 µg/Kg and 960 µg/Kg. Observation was made for 48 hours after subcutaneous administration. Toxic response and mortality of the rats were preliminarily observed, and time of death and doses without mortality were recorded. The level of acute toxicity of the polypeptides was preliminarily determined based on the doses without mortality.

Compound: CCCCCCCCCCCC(=O)N[C@@H](CCC(=O)NCCOCCOCC(=O)NCCCC[C@H](NC(=O)[C@H](Cc1c[nH]cn1)NC(=O)[C@H](C)NC(=O)[C@H](Cc1ccccc1)NC(=O)[C@H](Cc1ccc(O)cc1)NC(=O)[C@@H](NC(=O)[C@H](C)NC(=O)[C@H](CCC(=O)O)NC(=O)[C@H](CCC(=O)O)NC(=O)[C@H](CC(=O)O)NC(=O)/C=C/C(=O)O)C(C)C)C(=O)N[C@@H](CC(=O)O)C(=O)N[C@H](C(=O)N[C@H](C(=O)N[C@@H](Cc1c[nH]c2ccccc12)C(=O)O)[C@@H](C)CC)C(C)C)C(=O)O [BX229-Na] (Fumaroyl-DEEAVYFAHK([AEEA-γGlu-Lauroyl])DVIW-OH)
- Observations of Animal Status (subcutaneous 120 µg/Kg): No obvious reaction observed within 24 hours
- Observations of Animal Status (subcutaneous 240 µg/Kg): No obvious abnormal reaction observed within 48 hours
- Observations of Animal Status (subcutaneous 480 µg/Kg): No obvious abnormal reaction observed within 48 hours
- Observations of Animal Status (subcutaneous 960 µg/Kg): No significant reaction within 2 hours, died at 2 hours and 10 minutes; also recorded: No obvious abnormal reaction observed within 48 hours
